{"source": "patent US20110028504A1", "about": "“Formulation of radioprotective alpha beta unsaturated aryl sulfones” (ONCONOVA THERAPEUTICS, INC., priority 2005, published 2011)", "assay_type_in_all_cases": "physicochemical", "key": {"[1]": {"assay": "Saturated solubility in different solvent systems"}, "[2]": {"assay": "Octanol-water partition coefficient", "conditions": "25° C., n-octanol and HPLC water, triplicate; pH of the aqueous phase 8.1", "description": "The octanol-water partition coefficient of the drug is determined at 25° C. Equal volumes (10 ml) saturated solution of ON.1210.Na in n-octanol and HPLC water are equilibrated at 25° C. in a shaking water bath for 48 hours. The pH of the aqueous phase is also determined. At a predetermined time, a known volume of both the organic and aqueous phase is collected via a filtered needle. Subsequently, the concentration of ON.1210.Na is determined by HPLC after adequate dilution.\nThe octanol-water partition coefficient of the drug is determined at 25° C. using equal volumes (10 ml) of saturated solution of ON.1210.Na in n-octanol and HPLC water. Similarly, the partition coefficient is determined using simulated gastric and intestinal fluid without enzymes. The octanol-water partition coefficient is determined using the following equation: […]"}, "[3]": {"assay": "pH stability testing at 75° C. (HPLC)", "description": "(§1) The drug is dissolved in different pH buffers as outlined in Table 20. One hundred mL of each solution is prepared in a volumetric flask. Each solution is filtered through a 0.22 um filter. Approximately, four mL of the above solution is placed in 5 ml ampoules and sealed by a propane torch. The pH of the solution is determined at time zero and at each time interval. All the ampoules are placed in a 75° C. constant temperature oven. Any color changes or precipitation in the solution during the sample collection is visually observed. Concentration of the drug is determined at time zero and other time intervals by HPLC.\nas §1, with “prepared in volumetric flask.” for “prepared in a volumetric flask.”, “filtered through 0.22 um” for “filtered through a 0.22 um”, “by HPLC. The pH and drug content of each sample are determined.” for “by HPLC.”\nThe data from the pH stability study is analyzed by plotting Log (conc.) versus time.\nThe rate constant for the degradation is determined using a linear regression at each individual pH."}}, "note": "“Also recorded” adds a separate entry of the source.", "data": [{"smiles": "O=C([O-])c1ccc(/C=C/S(=O)(=O)Cc2ccc(Cl)cc2)cc1.[Na+]", "note": "[ON.1210.Na, (E)-4-Carboxystyryl-4-chlorobenzylsulfone, Sodium Salt]", "values": [{"measurement": "Solubility", "setting": "[1]; 0.25% Tween 80 in phosphate buffer, pH of solution 8.45", "value": 9.5, "unit": "mg/mL"}, {"measurement": "Solubility", "setting": "[1]; 0.5% Tween 80 in phosphate buffer, pH of solution 8.41", "value": 9.8, "unit": "mg/mL"}, {"measurement": "Solubility", "setting": "[1]; 1% Tween 80 in phosphate buffer, pH of solution 8.45", "value": 8.9, "unit": "mg/mL"}, {"measurement": "Solubility", "setting": "[1]; 2% Tween 80 in phosphate buffer, pH of solution 8.39", "value": 9.7, "unit": "mg/mL"}, {"measurement": "Solubility", "setting": "[1]; 2% tween 80 in water, pH of solution 8.78", "value": 9, "unit": "mg/mL"}, {"measurement": "Solubility", "setting": "[1]; 10% cyclodextran, 24 hours of equilibration, pH of solution 8.14", "value": 46, "unit": "mg/mL"}, {"measurement": "Solubility", "setting": "[1]; 10% cyclodextran, 48 hours of equilibration, pH of solution 8.41", "value": 41, "unit": "mg/mL"}, {"measurement": "Solubility", "setting": "[1]; 50% PEG400:water, pH of solution 7.53", "value": 40, "unit": "mg/mL"}, {"measurement": "Solubility", "setting": "[1]; 50:50 PEG400:ethanol, pH of solution 8.46", "value": 37, "unit": "mg/mL"}, {"measurement": "Solubility", "setting": "[1]; PEG300 (IP10 g/kg), pH of solution 8.21", "value": 52.04, "unit": "mg/mL"}, {"measurement": "octanol:water partition coefficient", "setting": "[2]", "value": "1.28-2.87"}, {"measurement": "pH-stability profile", "setting": "[3]; aqueous buffers pH 4 to 9, 75° C., Sodium Salt", "value": "better stability at neutral and biological pH but degradation is rapid under acidic condition; also recorded: dramatically improved as the pH is increased towards the neutral pH"}, {"measurement": "order of the degradation reaction", "setting": "[3]; aqueous buffers, 75° C., Sodium Salt", "value": "pseudo-first-order rate; also recorded: pseudo first order reaction"}, {"measurement": "stability in an aqueous environment", "setting": "[3]; biological pH", "value": "quite stable in an aqueous environment at biological pH"}, {"measurement": "Kobs, first order rate constant for the degradation", "setting": "[3]; pH 4.0, 75° C.", "value": 0.0621, "unit": "day⁻¹"}, {"measurement": "Concentration of the ON.1210.Na determined by HPLC during the stability study", "setting": "[3]; pH 4 buffer, 75° C., 0 hours, pH of the solution 4.03", "value": 2.7047, "unit": "µg/mL"}, {"measurement": "Concentration of the ON.1210.Na determined by HPLC during the stability study", "setting": "[3]; pH 4 buffer, 75° C., 1 day, pH of the solution 4.3", "value": 2.659, "unit": "µg/mL"}, {"measurement": "Concentration of the ON.1210.Na determined by HPLC during the stability study", "setting": "[3]; pH 4 buffer, 75° C., 3 days, pH of the solution 4.12", "value": 2.6331, "unit": "µg/mL"}, {"measurement": "Concentration of the ON.1210.Na determined by HPLC during the stability study", "setting": "[3]; pH 4 buffer, 75° C., 5 days, pH of the solution 4.5", "value": 2.7344, "unit": "µg/mL"}, {"measurement": "Concentration of the ON.1210.Na determined by HPLC during the stability study", "setting": "[3]; pH 4 buffer, 75° C., 42 days, pH of the solution 3.84", "value": 0.1171, "unit": "µg/mL"}, {"measurement": "Concentration of the ON.1210.Na determined by HPLC during the stability study", "setting": "[3]; pH 4 buffer, 75° C., 54 days, pH of the solution 3.74", "value": 0.1614, "unit": "µg/mL"}, {"measurement": "Kobs, first order rate constant for the degradation", "setting": "[3]; pH 5.0, 75° C.", "value": 0.0295, "unit": "day⁻¹"}, {"measurement": "Concentration of the ON.1210.Na determined by HPLC during the stability study", "setting": "[3]; pH 5 buffer, 75° C., 0 hours, pH of the solution 5.03", "value": 4.4577, "unit": "µg/mL"}, {"measurement": "Concentration of the ON.1210.Na determined by HPLC during the stability study", "setting": "[3]; pH 5 buffer, 75° C., 1 day, pH of the solution 5.18", "value": 4.394, "unit": "µg/mL"}, {"measurement": "Concentration of the ON.1210.Na determined by HPLC during the stability study", "setting": "[3]; pH 5 buffer, 75° C., 3 days, pH of the solution 5.11", "value": 4.4295, "unit": "µg/mL"}, {"measurement": "Concentration of the ON.1210.Na determined by HPLC during the stability study", "setting": "[3]; pH 5 buffer, 75° C., 5 days, pH of the solution 5.14", "value": 4.4714, "unit": "µg/mL"}, {"measurement": "Concentration of the ON.1210.Na determined by HPLC during the stability study", "setting": "[3]; pH 5 buffer, 75° C., 10 days, pH of the solution 5.2", "value": 1.017, "unit": "µg/mL"}, {"measurement": "Concentration of the ON.1210.Na determined by HPLC during the stability study", "setting": "[3]; pH 5 buffer, 75° C., 17 days, pH of the solution 5.21", "value": 0.8382, "unit": "µg/mL"}, {"measurement": "Concentration of the ON.1210.Na determined by HPLC during the stability study", "setting": "[3]; pH 5 buffer, 75° C., 28 days, pH of the solution 4.71", "value": 1.3340, "unit": "µg/mL"}, {"measurement": "Concentration of the ON.1210.Na determined by HPLC during the stability study", "setting": "[3]; pH 5 buffer, 75° C., 35 days, pH of the solution 4.93", "value": 2.8137, "unit": "µg/mL"}, {"measurement": "Concentration of the ON.1210.Na determined by HPLC during the stability study", "setting": "[3]; pH 5 buffer, 75° C., 42 days", "value": 1.3049, "unit": "µg/mL"}, {"measurement": "Concentration of the ON.1210.Na determined by HPLC during the stability study", "setting": "[3]; pH 5 buffer, 75° C., 54 days, pH of the solution 4.76", "value": 0.9539, "unit": "µg/mL"}, {"measurement": "Kobs, first order rate constant for the degradation", "setting": "[3]; pH 6.0, 75° C.", "value": 0.0069, "unit": "day⁻¹"}, {"measurement": "Concentration of the ON.1210.Na determined by HPLC during the stability study", "setting": "[3]; pH 6 buffer, 75° C., 0 hours, pH of the solution 6.02", "value": 22.39, "unit": "µg/mL"}, {"measurement": "Concentration of the ON.1210.Na determined by HPLC during the stability study", "setting": "[3]; pH 6 buffer, 75° C., 1 day, pH of the solution 6.12", "value": 22.3, "unit": "µg/mL"}, {"measurement": "Concentration of the ON.1210.Na determined by HPLC during the stability study", "setting": "[3]; pH 6 buffer, 75° C., 3 days, pH of the solution 6.21", "value": 22.36, "unit": "µg/mL"}, {"measurement": "Concentration of the ON.1210.Na determined by HPLC during the stability study", "setting": "[3]; pH 6 buffer, 75° C., 5 days, pH of the solution 6.14", "value": 22.4945, "unit": "µg/mL"}, {"measurement": "Concentration of the ON.1210.Na determined by HPLC during the stability study", "setting": "[3]; pH 6 buffer, 75° C., 10 days, pH of the solution 6.17", "value": 19.0863, "unit": "µg/mL"}]}]}
